What was measured:
Format in all cases: in vivo, SD rats
[1] = system: rat subcutaneous infiltration model; test: Local anesthetic effect by subcutaneous infiltration, Von Frey needle stimulation of back skin
[2] = system: sciatic nerve of the rat; details: 2 mg/ml, 5 ml/kg, single injection near the sciatic nerve of the rat; hot plate 50±0.1° C.
Method: The experimental methods described in the following test examples were standard procedures unless otherwise specified. All experimental animals used in the following test examples were SD rats purchased from Hunan Slac Jingda Experimental Animal Co., Ltd. Other test materials, unless stated otherwise, were purchased from conventional biochemical reagent suppliers.
The compounds listed in Table 1 and levobupivacaine hydrochloride (positive control) were administered to three groups of rats fully acclimated to the experimental environment, with one rat per group.
Solution Preparation: 2 mg/ml Levobupivacaine Hydrochloride Injection: 2.670 ml of 7.5 mg/ml levobupivacaine hydrochloride injection (Batch No. 92S0702) was pipetted into a 10 ml volumetric flask. 0.9% NaCl solution was added until the meniscus was level with the calibration line, and the solution was inverted and mixed thoroughly, to prepare 2 mg/ml levobupivacaine hydrochloride injection. 2 mg/ml Example Compound Solution: 6.6 mg of the example compound was accurately weighed and dissolved in 3.3 ml of 0.9% NaCl solution to prepare a 2 mg/ml example compound solution.
Both the positive control and the example compound were administered to each rat at 2 mg/ml, with an administration volume of 5 ml/kg, in a single injection near the sciatic nerve of the rat. After the administration, the rat was placed on a preheated hot plate (50±0.1° C.) of an intelligent hot plate instrument. […] The maximum thermal latency was controlled at 60 s. […] Any urine or feces on the hot plate was promptly cleaned and dried before subsequent tests.
Thermal latency results were expressed as the maximum proportional effect (MPE), calculated using the following formula.
Wherein: B represented the basal thermal latency of the rats; P was the maximum thermal latency C was the observed thermal latency at the detection time point.
Measurements were considered invalid if the MPE was less than 50% of the maximum proportional effect. If two consecutive measurements yielded an MPE of less than […], the experiment was terminated.

[3] = system: rat subcutaneous infiltration model; test: Local anesthetic effect by subcutaneous infiltration, Von Frey needle stimulation of back skin; details: 1 mg/ml, 0.5 mL subcutaneous injection on the back, 10 rats
Method: After shaving and disinfecting the backs of SD rats (half male and half female) weighing 190-210 grams, a circle with a diameter of approximately 1.5 cm was drawn on one side of the exposed skin. 0.5 mL of a solution containing the drug was subcutaneously injected into the skin in the center. The solution, using physiological saline as the solvent, contained either 2 mg/ml bupivacaine hydrochloride or 1 mg/ml concentration of the compounds listed in Table 2 of the present application. Each group consisted of 10 rats. A Von Frey fiber with a 100-gram force was attached to a needle for local skin stimulation. One minute after drug administration, the rat's response to the stimulus was measured. Testing was conducted at 6 different points within the marked area of drug administration. Skin contraction, avoidance, and other behaviors following stimulation were observed and recorded. Three points in the center and three points around the circle were stimulated, and the number of skin contraction and avoidance behaviors was recorded as N6. […] Each compound was tested on 10 rats.

Row | Structure (SMILES) | Duration/h ([1]; Drug Concentration 0.3 mmol/L) [h] | Duration/h ([1]; Drug Concentration 1 mmol/L) [h] | Onset Time/min [2] [min] | Duration/h [3] [h] | Onset Time/min [3] [min] | Duration/h [2] [h]
1 | CCCC[N+]1(CCCCOc2c(C)cc(C)cc2C)CCCC[C@H]1C(=O)Nc1c(C)cccc1C (stereo partly drawn) [Compound of Example 25, (2S)-1-Butyl-2-((2,6-dimethylphenyl)carbamoyl)-1-(4-(symmetricalmesityloxy)butyl)piperidine bromide] | 24 to 48 | 48 to 72 | 1 | 72 to 96 | 1 | 
2 | CCCC[N+]1(CCCCOc2cccc(C)c2)CCCC[C@H]1C(=O)Nc1c(C)cccc1C (stereo partly drawn) [Compound of Example 5, (2S)-1-Butyl-2-((2,6-dimethylphenyl)carbamoyl)-1-(4-(m-tolyloxy)butyl)piperidine bromide] | 24 to 48 | 48 to 72 | 1 | 72 to 96 | 1 | 48 to 72

Source: US20250326755A1, “CYCLIC QUATERNARY AMMONIUM SALT COMPOUND, AND PREPARATION METHOD THEREFOR AND USE THEREOF” (YICHANG HUMANWELL PHARMACEUTICAL CO., LTD., priority 2022, published 2025)
